# Test results published in patent US12545668B2, “Cyclic amine derivative as agent for promoting advillin function, and novel cyclic amine derivative and pharmaceutical use thereof” (Toray Industries, Inc., priority 2018, dated 2026).
# Legend:
# [1] = tested on: sciatic nerve of a rat spinal nerve ligation model; test: Actin filament/actin monomer ratio in the sciatic nerve of rat spinal nerve ligation model; type: in vivo
# Excerpt: The effect of the cyclic amine derivative (I) or a pharmacologically acceptable salt thereof on a ratio between the amount of actin filaments and the amount of actin monomers in the sciatic nerve of a rat spinal nerve ligation model was examined.
# Male SD rats (manufactured by Charles River Laboratories Japan, Inc.) of 6 weeks old were used. Each rat spinal nerve ligation model was produced by resecting the spine vertebral arch by incision of the right lower back under isoflurane inhalation anesthesia, completely ligating L5 and L6 nerve roots of the spinal nerve, and then suturing the muscular layer and the skin. As a negative control (sham-operation group), the right L5 and L6 nerves were exposed, and then the muscular layer and the skin were sutured similarly without ligation. One week after the nerve ligation, the rats were used to perform the following experiment. […]
# For quantitative determination of actin filaments and actin monomers, G-actin/F-actin in vivo assay kit (manufactured by Cytoskeleton Inc.) was used. […] The amount of actin in each of the actin monomer sample and the actin filament sample was measured by Western blotting. […] Luminescence intensity of a band corresponding to actin was quantitatively determined using Image Lab software (manufactured by Bio-Rad). […]
# [2] = Specific binding of 3H-labeled compound to membrane fraction prepared from rat sciatic nerve; settings: 3H-labeled compound of Example 7, 37° C., 1 hour; relative to dorsal root ganglion
# Protocol: (§1) A binding property of a ^3H-labeled cyclic amine derivative (I) to each of membrane fractions prepared from various tissues of a rat was evaluated, and thus, a tissue containing a molecular target of the cyclic amine derivative (I) was clarified.
# (§2) As the cyclic amine derivative (I), the compound of Example 7 was used.
# (§3) Male SD rats (manufactured by Charles River Laboratories Japan, Inc.) of 7 weeks old were used. Rats were anesthetized with isoflurane, and euthanized by exsanguination from the abdominal aorta using a syringe having an inner wall treated with a heparin sodium injection (manufactured by AY Pharmaceuticals Co., Ltd.). […]
# (§4) A homogenate sample of each tissue thus collected was prepared, using a homogenizer, by adding a homogenize buffer (sucrose (1 M), Tris-HCl (0.5 M), and 1× protease inhibitor cocktail (manufactured by Sigma Aldrich), pH 7.6) to the collected tissue. […] The resultant supernatant was ultracentrifuged at 100,000×g at 4° C. for 60 minutes, and the thus obtained precipitate was suspended in Krebs-Ringer bicarbonate buffer (manufactured by Sigma Aldrich) to quantitatively determine the amount of protein using a BCA protein assay kit (manufactured by Thermo Fisher Scientific K.K.). […]
# [3] = Specific binding of 3H-labeled compound to membrane fraction prepared from rat brainstem; settings: 3H-labeled compound of Example 7, 37° C., 1 hour; relative to dorsal root ganglion
# Protocol: as §1, §2, §3, §4
smiles,measurement,setting,value
"CN(C)C1CCN(C(=O)C[C@H](O)c2nccn2C)CC1 [Example 7, (S)-1-(4-(dimethylamino)piperidin-1-yl)-3-hydroxy-3-(1-methyl-1H-imidazol-2-yl)propan-1-one]",actin filament/actin monomer ratio compared to the distilled water administration group,"[1]; oral 60 mg/kg once a day for 2 days, sciatic nerve, p<0.025 Williams",significantly reduced
same,actin filament/actin monomer ratio,"[1]; oral 6, 20 and 60 mg/kg once a day for 2 days, sciatic nerve 3 hours after last administration, FIG. 3b",reduced as the dose of the compound of Example 7 was increased
same,"specific binding to the membrane fraction prepared from the sciatic nerve, as % of the specific binding to the dorsal root ganglion membrane fraction",[2],42%
same,"specific binding to the membrane fraction prepared from the brainstem, as % of the specific binding to the dorsal root ganglion membrane fraction",[3],4.2%
